Measurements reported in PubChem BioAssay AID256 (DTP/NCI, 2004).
“And” between values parts separate entries of the source, which are not always exact repeats. Equal entries are not always repeated. Toxic doses and inconclusive results are not listed.

Tested on: CD2F1 mice, L1210 leukemia ip, survival T/C
Assay: NCI In Vivo Anticancer Drug Screen. Data for tumor model L1210 Leukemia (intraperitoneal) in CD2F1 (CDF1) mice
Settings: higher = longer survival
How it was run: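 Compound-dosed mice with transplantable tumor versus matched vehicle controls; endpoint ratio T/C reported.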

[1] = endpoint: mean survival time, dose: 200.0 mg/kg/injection, schedule: Q04DX003 (ip), vehicle: saline
[2] = endpoint: mean survival time, dose: 400.0 mg/kg/injection, schedule: Q04DX003 (ip), vehicle: saline

Nc1ncn(C2OC(CO)C(O)C2O)c(=O)n1 (stereo not drawn)
T/C (endpoint: mean survival time, dose: 1.56 mg/kg/injection, schedule: Q01DX009 (ip), vehicle: saline): 155 % of control and 166 % of control
T/C (endpoint: mean survival time, dose: 1.56 mg/kg/injection, schedule: Q04DX003 (ip), vehicle: saline): 117 % of control
T/C (endpoint: mean survival time, dose: 3.12 mg/kg/injection, schedule: Q01DX009 (ip), vehicle: saline): 176 % of control
T/C (endpoint: mean survival time, dose: 3.12 mg/kg/injection, schedule: Q03HX024 (ip), vehicle: saline): 296 % of control
T/C (endpoint: mean survival time, dose: 3.12 mg/kg/injection, schedule: Q04DX003 (ip), vehicle: saline): 119 % of control and 120 % of control and 123 % of control
T/C (endpoint: mean survival time, dose: 6.25 mg/kg/injection, schedule: Q03HX024 (ip), vehicle: saline): 325 % of control
T/C (endpoint: mean survival time, dose: 6.25 mg/kg/injection, schedule: Q04DX003 (ip), vehicle: saline): 121 % of control and 123 % of control
T/C (endpoint: mean survival time, dose: 10.0 mg/kg/injection, schedule: Q04DX003 (ip), vehicle: saline): 112 % of control
T/C (endpoint: mean survival time, dose: 12.5 mg/kg/injection, schedule: Q03HX024 (ip), vehicle: saline): 353 % of control
T/C (endpoint: mean survival time, dose: 12.5 mg/kg/injection, schedule: Q04DX003 (ip), vehicle: saline): 151 % of control
T/C (endpoint: mean survival time, dose: 25.0 mg/kg/injection, schedule: Q03HX024 (ip), vehicle: saline): 295 % of control
T/C (endpoint: mean survival time, dose: 25.0 mg/kg/injection, schedule: Q04DX003 (ip), vehicle: saline): 167 % of control
T/C (endpoint: mean survival time, dose: 50.0 mg/kg/injection, schedule: Q03HX024 (ip), vehicle: saline): 248 % of control
T/C (endpoint: mean survival time, dose: 50.0 mg/kg/injection, schedule: Q04DX003 (ip), vehicle: saline): 163 % of control and 173 % of control
T/C (endpoint: mean survival time, dose: 100.0 mg/kg/injection, schedule: Q03HX024 (ip), vehicle: saline): 124 % of control
T/C [1]: 182 % of control and 190 % of control and 200 % of control
T/C [2]: 222 % of control
T/C (endpoint: mean survival time, dose: 800.0 mg/kg/injection, schedule: Q04DX003 (ip), vehicle: saline): 269 % of control
T/C (endpoint: mean survival time, dose: 1600.0 mg/kg/injection, schedule: Q04DX003 (ip), vehicle: saline): 222 % of control
T/C (endpoint: median survival time, dose: 1.56 mg/kg/injection, schedule: Q01DX009 (ip), vehicle: other): 156 % of control
T/C (endpoint: median survival time, dose: 2.3 mg/kg/injection, schedule: Q03HX024 (ip), vehicle: DMSO): 292 % of control
T/C (endpoint: median survival time, dose: 3.12 mg/kg/injection, schedule: Q01DX009 (ip), vehicle: other): 163 % of control and 172 % of control
T/C (endpoint: median survival time, dose: 3.12 mg/kg/injection, schedule: Q01DX009 (ip), vehicle: saline): 162 % of control and 177 % of control
T/C (endpoint: median survival time, dose: 4.0 mg/kg/injection, schedule: Q03HX024 (ip), vehicle: saline): 348 % of control
T/C (endpoint: median survival time, dose: 6.25 mg/kg/injection, schedule: Q01DX009 (ip), vehicle: DMSO): 210 % of control and 228 % of control
T/C (endpoint: median survival time, dose: 6.25 mg/kg/injection, schedule: Q01DX009 (ip), vehicle: other): 192 % of control and 193 % of control
T/C (endpoint: median survival time, dose: 6.25 mg/kg/injection, schedule: Q01DX009 (ip), vehicle: saline): 198 % of control and 202 % of control and 212 % of control
T/C (endpoint: median survival time, dose: 6.25 mg/kg/injection, schedule: Q01DX009 (oral), vehicle: DMSO): 191 % of control
T/C (endpoint: median survival time, dose: 7.0 mg/kg/injection, schedule: Q03HX008 (ip), vehicle: DMSO): 179 % of control
T/C (endpoint: median survival time, dose: 11.2 mg/kg/injection, schedule: Q01DX005 (ip), vehicle: DMSO): 181 % of control
T/C (endpoint: median survival time, dose: 11.2 mg/kg/injection, schedule: Q01DX005 (iv), vehicle: DMSO): 176 % of control
T/C (endpoint: median survival time, dose: 12.5 mg/kg/injection, schedule: Q01DX009 (ip), vehicle: DMSO): 224 % of control and 258 % of control
T/C (endpoint: median survival time, dose: 12.5 mg/kg/injection, schedule: Q01DX009 (ip), vehicle: other): 214 % of control and 219 % of control
T/C (endpoint: median survival time, dose: 12.5 mg/kg/injection, schedule: Q01DX009 (oral), vehicle: DMSO): 225 % of control
T/C (endpoint: median survival time, dose: 14.0 mg/kg/injection, schedule: Q03HX008 (ip), vehicle: DMSO): 174 % of control
T/C (endpoint: median survival time, dose: 22.5 mg/kg/injection, schedule: Q01DX005 (ip), vehicle: DMSO): 187 % of control
T/C (endpoint: median survival time, dose: 22.5 mg/kg/injection, schedule: Q01DX005 (iv), vehicle: DMSO): 201 % of control
T/C (endpoint: median survival time, dose: 25.0 mg/kg/injection, schedule: Q01DX009 (ip), vehicle: DMSO): 260 % of control and 273 % of control
T/C (endpoint: median survival time, dose: 25.0 mg/kg/injection, schedule: Q01DX009 (ip), vehicle: other): 237 % of control and 265 % of control
T/C (endpoint: median survival time, dose: 25.0 mg/kg/injection, schedule: Q01DX009 (oral), vehicle: DMSO): 233 % of control
T/C (endpoint: median survival time, dose: 28.1 mg/kg/injection, schedule: Q03HX008 (ip), vehicle: DMSO): 186 % of control
T/C (endpoint: median survival time, dose: 30.0 mg/kg/injection, schedule: Q01DX009 (ip), vehicle: saline): 267 % of control and 278 % of control
T/C (endpoint: median survival time, dose: 37.5 mg/kg/injection, schedule: Q04DX003 (ip), vehicle: DMSO): 163 % of control
T/C (endpoint: median survival time, dose: 44.0 mg/kg/injection, schedule: Q01DX009 (ip), vehicle: saline): 278 % of control and 284 % of control
T/C (endpoint: median survival time, dose: 45.0 mg/kg/injection, schedule: Q01DX005 (ip), vehicle: DMSO): 208 % of control
T/C (endpoint: median survival time, dose: 45.0 mg/kg/injection, schedule: Q01DX005 (iv), vehicle: DMSO): 212 % of control
T/C (endpoint: median survival time, dose: 50.0 mg/kg/injection, schedule: Q01DX009 (ip), vehicle: DMSO): 289 % of control and 310 % of control
T/C (endpoint: median survival time, dose: 50.0 mg/kg/injection, schedule: Q01DX009 (ip), vehicle: other): 262 % of control and 289 % of control
T/C (endpoint: median survival time, dose: 50.0 mg/kg/injection, schedule: Q01DX009 (oral), vehicle: DMSO): 266 % of control
T/C (endpoint: median survival time, dose: 56.2 mg/kg/injection, schedule: Q01DX001 (ip), vehicle: DMSO): 123 % of control
T/C (endpoint: median survival time, dose: 56.2 mg/kg/injection, schedule: Q03HX008 (ip), vehicle: DMSO): 191 % of control
T/C (endpoint: median survival time, dose: 67.0 mg/kg/injection, schedule: Q01DX009 (ip), vehicle: saline): 326 % of control and 328 % of control
T/C (endpoint: median survival time, dose: 75.0 mg/kg/injection, schedule: Q04DX003 (ip), vehicle: DMSO): 173 % of control
T/C (endpoint: median survival time, dose: 90.0 mg/kg/injection, schedule: Q01DX005 (ip), vehicle: DMSO): 221 % of control
T/C (endpoint: median survival time, dose: 90.0 mg/kg/injection, schedule: Q01DX005 (iv), vehicle: DMSO): 242 % of control
T/C (endpoint: median survival time, dose: 100.0 mg/kg/injection, schedule: Q01DX009 (ip), vehicle: DMSO): 172 % of control
T/C (endpoint: median survival time, dose: 100.0 mg/kg/injection, schedule: Q01DX009 (ip), vehicle: other): 150 % of control and 277 % of control
T/C (endpoint: median survival time, dose: 100.0 mg/kg/injection, schedule: Q01DX009 (oral), vehicle: DMSO): 310 % of control
T/C (endpoint: median survival time, dose: 112.5 mg/kg/injection, schedule: Q03HX008 (ip), vehicle: DMSO): 198 % of control
T/C (endpoint: median survival time, dose: 150.0 mg/kg/injection, schedule: Q04DX003 (ip), vehicle: DMSO): 198 % of control
T/C (endpoint: median survival time, dose: 180.0 mg/kg/injection, schedule: Q01DX005 (ip), vehicle: DMSO): 242 % of control
T/C (endpoint: median survival time, dose: 180.0 mg/kg/injection, schedule: Q01DX005 (iv), vehicle: DMSO): 276 % of control
T/C (endpoint: median survival time, dose: 200.0 mg/kg/injection, schedule: Q01DX009 (ip), vehicle: DMSO): 123 % of control
T/C (endpoint: median survival time, dose: 225.0 mg/kg/injection, schedule: Q01DX001 (iv), vehicle: DMSO): 157 % of control
T/C (endpoint: median survival time, dose: 225.0 mg/kg/injection, schedule: Q03HX008 (ip), vehicle: DMSO): 180 % of control
T/C (endpoint: median survival time, dose: 300.0 mg/kg/injection, schedule: Q04DX003 (ip), vehicle: DMSO): 243 % of control
T/C (endpoint: median survival time, dose: 400.0 mg/kg/injection, schedule: Q01DX009 (ip), vehicle: DMSO): 117 % of control
T/C (endpoint: median survival time, dose: 400.0 mg/kg/injection, schedule: Q01DX009 (ip), vehicle: saline): 113 % of control
T/C (endpoint: median survival time, dose: 400.0 mg/kg/injection, schedule: Q01DX009 (oral), vehicle: DMSO): 117 % of control
T/C (endpoint: median survival time, dose: 600.0 mg/kg/injection, schedule: Q04DX003 (ip), vehicle: DMSO): 252 % of control
T/C (endpoint: median survival time, dose: 900.0 mg/kg/injection, schedule: Q01DX001 (ip), vehicle: DMSO): 162 % of control
T/C (endpoint: median survival time, dose: 1200.0 mg/kg/injection, schedule: Q04DX003 (ip), vehicle: DMSO): 284 % of control
T/C (endpoint: median survival time, dose: 1800.0 mg/kg/injection, schedule: Q01DX001 (ip), vehicle: DMSO): 191 % of control
T/C (endpoint: median survival time, dose: 2400.0 mg/kg/injection, schedule: Q04DX003 (ip), vehicle: DMSO): 290 % of control
T/C (endpoint: median survival time, dose: 3600.0 mg/kg/injection, schedule: Q01DX001 (ip), vehicle: DMSO): 223 % of control

C=CCN(CC=C)P(=O)(N1CC1C)N1CC1C (stereo not drawn)
T/C (endpoint: mean survival time, dose: 1.0 mg/kg/injection, schedule: Q01DX009 (ip), vehicle: saline): 122 % of control
T/C (endpoint: mean survival time, dose: 2.5 mg/kg/injection, schedule: Q01DX001 (ip), vehicle: saline): 115 % of control

COC(=O)CCC1CCC(=O)O1 (stereo not drawn)
T/C (endpoint: mean survival time, dose: 100.0 mg/kg/injection, schedule: Q01DX009 (ip), vehicle: saline with Tween-80): 98 % of control
T/C (endpoint: mean survival time, dose: 100.0 mg/kg/injection, schedule: Q04DX003 (ip), vehicle: saline): 102 % of control
T/C (endpoint: mean survival time, dose: 200.0 mg/kg/injection, schedule: Q01DX009 (ip), vehicle: saline with Tween-80): 105 % of control
T/C [1]: 100 % of control
T/C (endpoint: mean survival time, dose: 400.0 mg/kg/injection, schedule: Q01DX009 (ip), vehicle: saline with Tween-80): 94 % of control
T/C [2]: 100 % of control
